Results reported in ChEMBL document CHEMBL1909046, “DrugMatrix in vitro pharmacology data”.

Legend:
[1] = DRUGMATRIX: GABAA, Flunitrazepam, Central radioligand binding (ligand: [3H] Flunitrazepam); assay type: cell membranes, Rattus norvegicus, Wistar, Brain, Membrane; settings: Not Active = under 50% inhibition at 10 µM
[2] = DRUGMATRIX: Phosphodiesterase PDE4 enzyme inhibition (substrate: [3H]cAMP + cAMP); settings: u-937; Not Active = under 50% inhibition at 10 µM
[3] = target: T1, Neuropeptide Y receptor type 2 (Homo sapiens, UniProt P49146); assay type: cell membranes, Membrane; settings: kan-ts; further: in other assays of this panel Not Active means under 50% inhibition at 10 µM
T1 sequence (P49146 whole entry): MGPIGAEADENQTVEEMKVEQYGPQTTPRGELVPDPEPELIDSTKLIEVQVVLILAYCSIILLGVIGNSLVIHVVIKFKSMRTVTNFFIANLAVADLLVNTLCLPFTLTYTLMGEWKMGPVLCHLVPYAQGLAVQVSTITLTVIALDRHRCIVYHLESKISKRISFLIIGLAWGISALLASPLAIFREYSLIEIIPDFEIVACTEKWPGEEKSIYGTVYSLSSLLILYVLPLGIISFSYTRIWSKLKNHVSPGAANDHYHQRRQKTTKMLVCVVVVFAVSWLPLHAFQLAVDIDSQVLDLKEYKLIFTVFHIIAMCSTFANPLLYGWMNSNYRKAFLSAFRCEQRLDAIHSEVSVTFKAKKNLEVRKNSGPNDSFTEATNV

[4] = target: T2, Muscarinic acetylcholine receptor M5 (Homo sapiens, UniProt P08912); assay type: cell membranes, CHO-K1, Membrane; settings: cho-k1; further: in other assays of this panel Not Active means under 50% inhibition at 10 µM
T2 sequence (P08912 whole entry): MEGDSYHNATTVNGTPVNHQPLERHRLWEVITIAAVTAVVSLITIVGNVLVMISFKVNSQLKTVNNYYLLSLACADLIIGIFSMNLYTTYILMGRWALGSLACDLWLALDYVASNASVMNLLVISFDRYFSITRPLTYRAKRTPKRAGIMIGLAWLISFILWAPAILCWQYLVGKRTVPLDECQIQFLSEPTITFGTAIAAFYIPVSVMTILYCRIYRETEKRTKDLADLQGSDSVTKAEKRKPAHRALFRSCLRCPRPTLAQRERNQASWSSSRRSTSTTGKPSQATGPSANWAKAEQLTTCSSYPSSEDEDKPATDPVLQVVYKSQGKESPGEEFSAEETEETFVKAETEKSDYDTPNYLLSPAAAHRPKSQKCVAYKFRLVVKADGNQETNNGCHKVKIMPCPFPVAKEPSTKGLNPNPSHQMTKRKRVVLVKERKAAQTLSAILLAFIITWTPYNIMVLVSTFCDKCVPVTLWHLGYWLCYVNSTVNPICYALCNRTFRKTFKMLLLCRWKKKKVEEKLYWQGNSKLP

[5] = target: T3, Neutrophil elastase (Homo sapiens, UniProt P08246); assay type: tissue-based;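 further: inhibition of neutrophil elastase enzyme activity, measured with a p-nitroanilide-linked peptide substrate; in other assays of this panel Not Active means under 50% inhibition at 10 µM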
T3 sequence (P08246 whole entry): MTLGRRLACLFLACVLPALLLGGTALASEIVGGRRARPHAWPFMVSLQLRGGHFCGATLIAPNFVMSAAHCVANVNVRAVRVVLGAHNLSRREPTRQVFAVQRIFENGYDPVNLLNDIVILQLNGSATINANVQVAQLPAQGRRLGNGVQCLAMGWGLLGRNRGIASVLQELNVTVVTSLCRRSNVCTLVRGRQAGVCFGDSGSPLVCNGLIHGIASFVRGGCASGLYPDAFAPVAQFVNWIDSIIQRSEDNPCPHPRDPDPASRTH

[6] = DRUGMATRIX: GABAA, Chloride Channel, TBOB radioligand binding (ligand: [3H] TBOB); assay type: cell membranes, Rattus norvegicus, Wistar, Cerebral cortex, Membrane; settings: Not Active = under 50% inhibition at 10 µM
[7] = DRUGMATRIX: Calcium Channel Type L, Dihydropyridine radioligand binding (ligand: [3H] Nitrendipine); assay type: cell membranes, Rattus norvegicus, Wistar, Cerebral cortex, Membrane; settings: Not Active = under 50% inhibition at 10 µM
[8] = target: T4, 5-hydroxytryptamine receptor 1A (Rattus norvegicus, UniProt P19327); assay type: cell membranes, Membrane; settings: cho-k1; further: in other assays of this panel Not Active means under 50% inhibition at 10 µM
T4 sequence (P19327 whole entry): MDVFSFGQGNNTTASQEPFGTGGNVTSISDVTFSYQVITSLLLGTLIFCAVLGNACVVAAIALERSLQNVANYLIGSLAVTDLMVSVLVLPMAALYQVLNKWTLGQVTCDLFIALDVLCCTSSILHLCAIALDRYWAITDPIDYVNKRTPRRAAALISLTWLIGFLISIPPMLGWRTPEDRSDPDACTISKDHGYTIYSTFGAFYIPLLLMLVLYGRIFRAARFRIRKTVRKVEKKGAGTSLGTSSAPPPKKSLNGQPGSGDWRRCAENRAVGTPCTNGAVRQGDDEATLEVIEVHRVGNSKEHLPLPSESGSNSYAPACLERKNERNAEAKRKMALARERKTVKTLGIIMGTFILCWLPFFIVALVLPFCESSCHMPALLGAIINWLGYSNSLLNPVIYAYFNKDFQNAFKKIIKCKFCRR

SMILES | IC50 [1] | Ki [1] | IC50 [2] | Ki [2] | IC50 [3] | IC50 [4] | IC50 [5] | IC50 [6] | Ki [6] | IC50 [7] | Ki [7] | IC50 [8] | IC50 ([7]; read-out: IC50) [nM] | Ki ([7]; read-out: Ki) [nM]
CCc1c2c(nc3ccc(OC(=O)N4CCC(N5CCCCC5)CC4)cc13)-c1cc3c(c(=O)n1C2)COC(=O)[C@]3(O)CC [IRINOTECAN] | Not Active | Not Active | Not Active | Not Active | Not Active | Not Active | Not Active | Not Active | Not Active | Not Active | Not Active | Not Active |  | 
CC(C(=O)O)c1cccc(C(=O)c2ccccc2)c1 (stereo unspecified) [KETOPROFEN] | Not Active | Not Active | Not Active | Not Active | Not Active | Not Active | Not Active | Not Active | Not Active | Not Active | Not Active | Not Active |  | 
Nc1ccn([C@@H]2CS[C@H](CO)O2)c(=O)n1 [LAMIVUDINE] | Not Active | Not Active | Not Active | Not Active | Not Active | Not Active | Not Active | Not Active | Not Active | Not Active | Not Active | Not Active |  | 
O=S(=O)([O-])CCS.[Na+] [MESNA] | Not Active | Not Active | Not Active | Not Active | Not Active | Not Active | Not Active | Not Active | Not Active | Not Active | Not Active | Not Active |  | 
C#C[C@]1(O)CC[C@H]2[C@@H]3CCc4cc(OC)ccc4[C@H]3CC[C@@]21C [MESTRANOL] | Not Active | Not Active | Not Active | Not Active | Not Active | Not Active | Not Active | Not Active | Not Active | Not Active | Not Active | Not Active |  | 
CC(=O)Nc1cccc(O)c1 [METACETAMOL] | Not Active | Not Active | Not Active | Not Active | Not Active | Not Active | Not Active | Not Active | Not Active | Not Active | Not Active | Not Active |  | 
Cc1ncc([N+](=O)[O-])n1CCO [METRONIDAZOLE] | Not Active | Not Active | Not Active | Not Active | Not Active | Not Active | Not Active | Not Active | Not Active | Not Active | Not Active | Not Active |  | 
CC(C)(C(=O)c1cccnc1)c1cccnc1 [METYRAPONE] | Not Active | Not Active | Not Active | Not Active | Not Active | Not Active | Not Active | Not Active | Not Active | Not Active | Not Active | Not Active |  | 
Oc1ccc(OCc2ccccc2)cc1 [MONOBENZONE] | Not Active | Not Active | Not Active | Not Active | Not Active | Not Active | Not Active | Not Active | Not Active | Not Active | Not Active | Not Active |  | 
CC(C)(Oc1ccc(C2CCCc3ccccc32)cc1)C(=O)O (stereo unspecified) [NAFENOPIN] | Not Active | Not Active | Not Active | Not Active | Not Active | Not Active | Not Active | Not Active | Not Active | Not Active | Not Active | Not Active |  | 
CC(C)[C@H]1CC[C@H](C(=O)N[C@H](Cc2ccccc2)C(=O)O)CC1 [NATEGLINIDE] | Not Active | Not Active | Not Active | Not Active | Not Active | Not Active | Not Active | Not Active | Not Active | Not Active | Not Active | Not Active |  | 
CCN[C@@H]1C[C@H](N)[C@@H](O[C@H]2OC(CN)=CC[C@H]2N)[C@H](O)[C@H]1O[C@H]1OC[C@](C)(O)[C@H](NC)[C@H]1O [NETILMICIN] | Not Active | Not Active | Not Active | Not Active | Not Active | Not Active | Not Active | Not Active | Not Active | Not Active | Not Active | Not Active |  | 
COC(=O)C1=C(C)NC(C)=C(C(=O)OCC(C)C)C1c1ccccc1[N+](=O)[O-] (stereo unspecified) [NISOLDIPINE] | Not Active | Not Active | Not Active | Not Active | Not Active | Not Active | Not Active | Not Active | Not Active |  |  | Not Active | 0.741 | 0.476
CCOC(=O)C1=C(C)NC(C)=C(C(=O)OC)C1c1cccc([N+](=O)[O-])c1 (stereo unspecified) [NITRENDIPINE] | Not Active | Not Active | Not Active | Not Active | Not Active | Not Active | Not Active | Not Active | Not Active |  |  | Not Active | 0.383 | 0.246
C#C[C@]1(OC(C)=O)CC[C@H]2[C@@H]3CCC4=CC(=O)CC[C@@H]4[C@H]3CC[C@@]21C [NORETHINDRONE ACETATE] | Not Active | Not Active | Not Active | Not Active | Not Active | Not Active | Not Active | Not Active | Not Active | Not Active | Not Active | Not Active |  | 
COc1ccc2[nH]c([S+]([O-])Cc3ncc(C)c(OC)c3C)nc2c1 (stereo unspecified) [OMEPRAZOLE] | Not Active | Not Active | Not Active | Not Active | Not Active | Not Active | Not Active | Not Active | Not Active | Not Active | Not Active | Not Active |  | 
Cc1nccn1CC1CCc2c(c3ccccc3n2C)C1=O (stereo unspecified) [ONDANSETRON] | Not Active | Not Active | Not Active | Not Active | Not Active | Not Active | Not Active | Not Active | Not Active | Not Active | Not Active | Not Active |  | 
CCn1cc(C(=O)O)c(=O)c2cc(F)c(N3CCN(C)CC3)cc21 [PEFLOXACIN] | Not Active | Not Active | Not Active | Not Active | Not Active | Not Active | Not Active | Not Active | Not Active | Not Active | Not Active | Not Active |  | 
